Data from US20240252488A1 (KOREA RESEARCH INSTITUTE OF CHEMICAL TECHNOLOGY, priority 2020, published 2024).
pKd: −log10 of the molar value.

What was measured:
FADD−/− Jurkat cells = experiment: Necroptosis inhibition assay, TNF-α-induced necroptosis (CellTiter-Glo 2.0); format: cell-based, human; details: TNF-α 15 ng/mL; for Necroptosis inhibition assay (Rescue %) 1 μM: compound 1 μM; for Necroptosis inhibition assay (Rescue %) 10 μM: compound 10 μM
Method in brief: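 Tested at three fixed concentrations (0.1, 1, 10 μM final) with a 30-minute room-temperature preincubation ahead of 15 ng/mL TNF-α challenge lasting 20 to 24 hours. Inhibition rate and cytotoxicity derive from ATP luminescence.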

MLKL [1] = biological target: T1, MLKL (Homo sapiens, UniProt Q8NB16); experiment: MLKL degradation assay in HepG2 cell line (western blot); format: cell-based; design: endogenous in cells; host or cells: HepG2 or HaCaT; details: cell line not given; for Degradation assay (Degradation %) 1 μM: compound 1 μM; for Degradation assay (Degradation %) 10 μM: compound 10 μM
T1 sequence (Q8NB16 1-471): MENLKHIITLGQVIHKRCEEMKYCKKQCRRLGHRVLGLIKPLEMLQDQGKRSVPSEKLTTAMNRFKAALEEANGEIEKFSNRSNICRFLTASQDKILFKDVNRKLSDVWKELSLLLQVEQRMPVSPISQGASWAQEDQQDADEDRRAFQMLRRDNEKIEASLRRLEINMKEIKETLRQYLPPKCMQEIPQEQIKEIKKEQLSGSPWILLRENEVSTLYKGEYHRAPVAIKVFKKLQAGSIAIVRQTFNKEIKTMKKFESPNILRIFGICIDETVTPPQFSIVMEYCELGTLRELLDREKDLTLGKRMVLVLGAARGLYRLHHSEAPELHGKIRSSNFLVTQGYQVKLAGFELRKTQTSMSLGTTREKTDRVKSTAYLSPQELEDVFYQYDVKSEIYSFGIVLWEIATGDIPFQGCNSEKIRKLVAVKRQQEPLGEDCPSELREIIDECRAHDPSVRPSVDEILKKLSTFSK
Method in brief: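 Degradation is judged from MLKL band intensity on immunoblots of HepG2 lysates taken after 20-24 hours of compound at final 1 or 10 μM.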

MLKL [2] = biological target: T1, MLKL; experiment: Measurement of binding affinity with MLKL receptor (competitive binding assay, Kd); design: made in house; host or cells: HEK 293 cell line (T7 phage in E. coli BL21-derived host is also described)
Method in brief: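 Competitive displacement of MLKL, expressed in HEK 293 cells and DNA-tagged for qPCR, from immobilized ligand on biotin-blocked beads. Compounds were added from 111× DMSO stocks (final DMSO 0.9%). Kinase left in the eluates was quantified by qPCR to give Kd.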

Row | SMILES | Necroptosis inhibition assay (Rescue %) 1 μM (FADD−/− Jurkat cells) | Necroptosis inhibition assay (Rescue %) 10 μM (FADD−/− Jurkat cells) | Degradation assay (Degradation %) 1 μM (MLKL [1]) | Degradation assay (Degradation %) 10 μM (MLKL [1]) | pKd (MLKL [2])
1 | Nc1ncc(-c2cnn(C3CCN(CCC4CCN(C(=O)C5CCN(c6ccc7c(c6)C(=O)N(C6CCC(=O)NC6=O)C7=O)CC5)CC4)CC3)c2)nc1C(=O)O[C@@H](C(=O)Nc1ccc(F)cc1)c1ccccc1 (stereo partly drawn) [TDH-197, (R)-2-((4-fluorophenyl)amino)-2-oxo-1-phenylethyl 3-amino-6-(1-(1-(2-(1-(1-(2-(2,6-dioxopiperidin-3-yl)-1,3-dioxoisoindolin-5-yl)piperidine-4-carbonyl)piperidin-4-yl)ethyl)piperidin-4-yl)-1H-pyrazol-4-yl)pyrazine-2-carboxylate] | 56.07% | 32.02% | 58.62% | 23.6% | 9.13
2 | Nc1ncc(-c2cnn(C3CCN(CCC4CCN(C(=O)CNc5cccc6c5C(=O)N(C5CCC(=O)NC5=O)C6=O)CC4)CC3)c2)nc1C(=O)O[C@@H](C(=O)Nc1ccc(F)cc1)c1ccccc1 (stereo partly drawn) [TDH-198, (R)-2-((4-fluorophenyl)amino)-2-oxo-1-phenylethyl 3-amino-6-(1-(1-(2-(1-((2-(2,6-dioxopiperidin-3-yl)-1,3-dioxoisoindolin-4-yl)glycyl)piperidin-4-yl)ethyl)piperidin-4-yl)-1H-pyrazol-4-yl)pyrazine-2-carboxylate] | 79.13% | 31.65% | 69.49% | 41.71% | 8.89
3 | Nc1ncc(-c2cnn(C3CCN(CCC4CCN(C(=O)CNc5ccc6c(c5)C(=O)N(C5CCC(=O)NC5=O)C6=O)CC4)CC3)c2)nc1C(=O)O[C@@H](C(=O)Nc1ccc(F)cc1)c1ccccc1 (stereo partly drawn) [TDH-199, (R)-2-((4-fluorophenyl)amino)-2-oxo-1-phenylethyl 3-amino-6-(1-(1-(2-(1-((2-(2,6-dioxopiperidin-3-yl)-1,3-dioxoisoindolin-5-yl)glycyl)piperidin-4-yl)ethyl)piperidin-4-yl)-1H-pyrazol-4-yl)pyrazine-2-carboxylate] | 36.93% | 18% | 61.77% | 38.35% | 8.77
4 | Nc1ncc(-c2cnn(C3CCN(CCC4CCN(C(=O)COc5cccc6c5C(=O)N(C5CCC(=O)NC5=O)C6=O)CC4)CC3)c2)nc1C(=O)O[C@@H](C(=O)Nc1ccc(F)cc1)c1ccccc1 (stereo partly drawn) [TDH-200, (R)-2-((4-fluorophenyl)amino)-2-oxo-1-phenylethyl 3-amino-6-(1-(1-(2-(1-(2-((2-(2,6-dioxopiperidin-3-yl)-1,3-dioxoisoindolin-4-yl)oxy)acetyl)piperidin-4-yl)ethyl)piperidin-4-yl)-1H-pyrazol-4-yl)pyrazine-2-carboxylate] | 76.41% | 44.64% | 74.03% | 60.19% | 9.00
5 | Nc1ncc(-c2cnn(C3CCN(CCC4CCN(C(=O)COc5ccc6c(c5)C(=O)N(C5CCC(=O)NC5=O)C6=O)CC4)CC3)c2)nc1C(=O)O[C@@H](C(=O)Nc1ccc(F)cc1)c1ccccc1 (stereo partly drawn) [TDH-201, (R)-2-((4-fluorophenyl)amino)-2-oxo-1-phenylethyl 3-amino-6-(1-(1-(2-(1-(2-((2-(2,6-dioxopiperidin-3-yl)-1,3-dioxoisoindolin-5-yl)oxy)acetyl)piperidin-4-yl)ethyl)piperidin-4-yl)-1H-pyrazol-4-yl)pyrazine-2-carboxylate] | 91.53% | 62.79% | 85.96% | 82.98% | 8.89
6 | Nc1ncc(-c2cnn(C3CCN(CCC4CCN(c5cccc6c5C(=O)N(C5CCC(=O)NC5=O)C6=O)CC4)CC3)c2)nc1C(=O)O[C@@H](C(=O)Nc1ccc(F)cc1)c1ccccc1 (stereo partly drawn) [TDH-202, (R)-2-((4-fluorophenyl)amino)-2-oxo-1-phenylethyl 3-amino-6-(1-(1-(2-(1-(2-(2,6-dioxopiperidin-3-yl)-1,3-dioxoisoindolin-4-yl)piperidin-4-yl)ethyl)piperidin-4-yl)-1H-pyrazol-4-yl)pyrazine-2-carboxylate] | 60.16% | 29.13% | 65.39% | 53.78% | 8.68
7 | Nc1ncc(-c2cnn(C3CCN(CCC4CCN(c5ccc6c(c5)C(=O)N(C5CCC(=O)NC5=O)C6=O)CC4)CC3)c2)nc1C(=O)O[C@@H](C(=O)Nc1ccc(F)cc1)c1ccccc1 (stereo partly drawn) [TDH-203, (R)-2-((4-fluorophenyl)amino)-2-oxo-1-phenylethyl 3-amino-6-(1-(1-(2-(1-(2-(2,6-dioxopiperidin-3-yl)-1,3-dioxoisoindolin-5-yl)piperidin-4-yl)ethyl)piperidin-4-yl)-1H-pyrazol-4-yl)pyrazine-2-carboxylate] | 64.32% | 40.46% | 61.41% | 34.74% | 8.49
8 | Nc1ncc(-c2cnn(C3CCN(CC4CCN(C(=O)CC5CCN(c6cccc7c6C(=O)N(C6CCC(=O)NC6=O)C7=O)CC5)CC4)CC3)c2)nc1C(=O)O[C@@H](C(=O)Nc1ccc(F)cc1)c1ccccc1 (stereo partly drawn) [TDH-204, (R)-2-((4-fluorophenyl)amino)-2-oxo-1-phenylethyl 3-amino-6-(1-(1-((1-(2-(1-(2-(2,6-dioxopiperidin-3-yl)-1,3-dioxoisoindolin-4-yl)piperidin-4-yl)acetyl)piperidin-4-yl)methyl)piperidin-4-yl)-1H-pyrazol-4-yl)pyrazine-2-carboxylate] | 61.24% | 38.71% | 70% | 53.96% | 8.38
9 | Nc1ncc(-c2cnn(C3CCN(CC4CCN(C(=O)CC5CCN(c6ccc7c(c6)C(=O)N(C6CCC(=O)NC6=O)C7=O)CC5)CC4)CC3)c2)nc1C(=O)O[C@@H](C(=O)Nc1ccc(F)cc1)c1ccccc1 (stereo partly drawn) [TDH-205, (R)-2-((4-fluorophenyl)amino)-2-oxo-1-phenylethyl 3-amino-6-(1-(1-((1-(2-(1-(2-(2,6-dioxopiperidin-3-yl)-1,3-dioxoisoindolin-5-yl)piperidin-4-yl)acetyl)piperidin-4-yl)methyl)piperidin-4-yl)-1H-pyrazol-4-yl)pyrazine-2-carboxylate] | 59.88% | 41.34% | 57.56% | 36.05% | 8.17
10 | Nc1ncc(-c2cnn(C3CCN(CC4CCN(C(=O)CNc5ccc6c(c5)C(=O)N(C5CCC(=O)NC5=O)C6=O)CC4)CC3)c2)nc1C(=O)N[C@@H](C(=O)Nc1ccc(F)cc1)c1ccccc1 (stereo partly drawn) [TDH-207, 3-amino-6-(1-(1-((1-((2-(2,6-dioxopiperidin-3-yl)-1,3-dioxoisoindolin-5-yl)glycyl)piperidin-4-yl)methyl)piperidin-4-yl)-1H-pyrazol-4-yl)-N-((R)-2-((4-fluorophenyl)amino)-2-oxo-1-phenylethyl)pyrazine-2-carboxamide] | 28.69% | 32.45% | 17.98% | 24.18% | 6.68
